Data as given in US8119640B2, “Hedgehog pathway antagonists methods of use” (The Board of Trustees of the Leland Stanford Junior …, priority 2008, dated 2012).
“Also recorded” adds a separate entry of the source.

Tests used:
[1] = test system: Gli2 αPKA; assay: Hh pathway activation by overexpressed Gli2 phosphosite mutants; type: cell-based; details: NIH-3T3 cells; 15 μM HPI-1, 20 μM HPI-2
Protocol: Hh pathway activation mediated by the overexpression of Gli, Gli2, Gli2αPKA, or Gli2αGSK. […] The cells were co-transfected the following day with 220 ng/well pcDNA-derived Gli1, Gli2, or Gli2 phosphosite mutant expression vectors and 80 ng/well of a 1:15 mixture of phRLTK (Promega) and 8XGIiBS-FL. After transfection, cells were grown to confluence (approximately 48 h). The cell were then incubated for an additional 28-32 h in DMEM containing 0.5% CS, 100 U/mL penicillin, 0.1 mg/mL streptomycin, and either DMSO, 50 μM forskolin, 50 μM LY294002, or various concentrations of the HPIs. Firefly and Renilla luciferase activities were measured using a dual luciferase kit and a Veritas microplate luminometer.

[2] = test system: CREB; assay: PKA-mediated CREB phosphorylation assay; type: cell-based; details: NIH-3T3 cells; 15 μM HPI-1, 20 μM HPI-2
Protocol: PKA-mediated CREB phosphorylation assay. […] The cells were cultured for an additional 2 h and then lysed in hot 2×SDS-PAGE sample buffer (100 mM Tris, pH 6.8, 200 mM DTT, 0.02% bromophenol blue, 16 20 mM NaF, 2 mM sodium orthovandate, 4% SDS, and 20% glycerol). After the samples were boiled for 5 min, they were resolved on 4-12% Criterion XT gels (Bio-Rad) and transferred to PVDF membranes (Millipore). The membranes were blocked overnight in TBST buffer (Trisbuffered saline with 0.1% Tween 20) containing 5% bovine serum albumin and then probed with either anti-phosphorylated CREB (87G3, Cell Signaling Technology; 1:1,000 dilution) or CREB (48H2, Cell Signaling Technology, 1:1,000 dilution) antibodies.

[3] = test system: FLAG-Gli2; assay: Immunostaining of FLAG-Gli2 line: ciliary FLAG-Gli2 and primary cilia; type: cell-based, mouse; details: for Ciliary levels of FLAG-Gli2: Shh-EGFP FLAG-Gli2 cells, immunofluorescence
Protocol: Immunostaining of FLAG-Gli lines and NIH-3T3 cells. The FLAG-Gli1-expressing or FLAG-Gli2-expressing clonal cell lines were seeded into 24-well plates (80,000 cells/well) containing poly-D-lysine-coated 12-mm glass coverslips. […] The cells were subsequently fixed in 4% paraformaldehyde for 10 min at room temperature followed by treatment with methanol at −20° C. for 2 to 5 min. The cells were washed with PBS, permeabilized with 0.2% Triton X-100 for 2 to 5 min, and then blocked with PBS containing 2% BSA for 3 h at room temperature. The coverslips were then treated with mouse anti-FLAG M2 antibody (Sigma; 1:1,000 dilution in blocking buffer) and rabbit anti-Arl13b (10) (1:1,000 dilution in blocking buffer) for 3 h at room temperature and washed 3×5 min with PBS. The coverslips were incubated next with Alexa Fluor 594-conjugated goat anti-mouse IgG and Alexa Fluor 488-conjugated donkey anti-rabbit IgG antibodies (Invitrogen; 1:1,000 dilutions in blocking buffer) for 2 h at room temperature. After washes with PBS and a 5-min incubation with 4,6-diamidino-2-phenylindole (DAPI), the samples were mounted using Prolong Gold (Invitrogen) and imaged with an upright Leica DM4500B compound microscope. In order to quantify ciliary Gli2 localization, a circular region with diameter equal to the average width of cilia as determined by the anti-Arl13b antibody staining was manually placed at the distal end of each cilium. Regions were transferred from the anti-Arl13b antibody image to the anti-FLAG antibody image, and FLAG staining intensities within those areas were assessed. Between 40 and 80 cilia were analyzed for each condition. To normalize ciliary FLAG-Gli2 levels with respect to compound-dependent changes in total FLAG-Gli2 levels, the absolute average intensities for each condition were divided by the fold change in FLAG-Gli2 levels, as determined by the quantitative immunoblotting described above. Quantification of ciliary FLAG-Gli1 levels was performed in an analogous manner. Since HPI-4 perturbs primary cilia formation, only Arl13b-positive structures that could be clearly identified as cilia were used for Gli protein quanitification in HPI-4-treated cells. To assess cytoplasmic microtubule structures in cells treated with the HPIs, NIH-3T3 cells were cultured on poly-D-lysine-coated 12-mm glass coverslip, treated with the HPIs, and fixed with 4% paraformalehyde as described above. In place of the methanol treatment, the cells were permeabilitized with PBS containing 0.1% Triton X-100 for 1 min. Washing, blocking, and antibody incubation steps were then conducted as before, using mouse anti-<-tubulin (DM1-A, Sigma, 1:2,000 in blocking buffer). Secondary antibody treatments, DAPI staining, mounting, and imaging were then conducted as described above.

[4] = test system: FLAG-Gli1; assay: Immunostaining of FLAG-Gli1 line: FLAG-Gli1 localization; type: cell-based, mouse; details: Shh-LIGHT2 FLAG-Gli1 cells
Protocol: Immunostaining of FLAG-Gli lines and NIH-3T3 cells. The FLAG-Gli1-expressing or FLAG-Gli2-expressing clonal cell lines were seeded into 24-well plates (80,000 cells/well) containing poly-D-lysine-coated 12-mm glass coverslips. […] The cells were subsequently fixed in 4% paraformaldehyde for 10 min at room temperature followed by treatment with methanol at −20° C. for 2 to 5 min. The cells were washed with PBS, permeabilized with 0.2% Triton X-100 for 2 to 5 min, and then blocked with PBS containing 2% BSA for 3 h at room temperature. […] In order to quantify ciliary Gli2 localization, a circular region with diameter equal to the average width of cilia as determined by the anti-Arl13b antibody staining was manually placed at the distal end of each cilium. Regions were transferred from the anti-Arl13b antibody image to the anti-FLAG antibody image, and FLAG staining intensities within those areas were assessed. Between 40 and 80 cilia were analyzed for each condition. To normalize ciliary FLAG-Gli2 levels with respect to compound-dependent changes in total FLAG-Gli2 levels, the absolute average intensities for each condition were divided by the fold change in FLAG-Gli2 levels, as determined by the quantitative immunoblotting described above. Quantification of ciliary FLAG-Gli1 levels was performed in an analogous manner. […]

Structure (SMILES) | Sensitivity of overexpressed Gli2 αPKA mutant to compound [1] | PKA-dependent phosphorylation of CREB [2] | Ciliary levels of FLAG-Gli2 [3] | Ciliary FLAG-Gli1 levels [4] | Subcellular localization of FLAG-Gli1 [4] | Primary cilia formation ([3]; 30 μM HPI-4)
COCCOC(=O)C1=C(C)NC2=C(C(=O)CC(c3ccccc3OC)C2)C1c1cccc(O)c1 (mixture of isomers) [Compound 8, 4-(3-Hydroxy-phenyl)-7-(2-methoxy-phenyl)-2-methyl-5-oxo-1,4,5,6,7,8-hexahydro-quinoline-3-carboxylic acid 2-methoxy-ethyl ester] | partially resistant | does not induce the PKA-dependent phosphorylation |  |  |  | 
OCCNc1nc(N2CCN(c3ccccc3)CC2)nc2ccccc12 [Compound 11] |  |  | increased ciliary levels of FLAG-Gli2 |  |  | 
COc1ccc(OC)c2c1cc1n2CC(C)(C(=O)NC2CCCCCCC2)N(CCN(C)C)C1=O (stereo not shown) [Compound 17] | partially resistant | significantly lower than that observed in forskolin-treated cells | increased ciliary levels of FLAG-Gli2 |  |  | 
N#CC(C(=O)c1ccc(Cl)cc1Cl)=C1NC(=O)c2ccccc2N1 [Compound 18] |  |  | increased ciliary levels of FLAG-Gli2 | promoted accumulation of FLAG-Gli1 at the distal tip of this organelle relative to total FLAG-Gli1 levels | reduced cytoplasmic levels of the transcription factor but retained nuclear FLAG-Gli1 | truncated primary cilia; also recorded: inhibits primary cilia formation
